Laboratory results: patent US8133694B2, “Functional vitamin D derivatives and method of determining 25-hydroxy- and 1α, 25-dihydroxy vitamin D” (Immundiagnostik AG, priority 1998, dated 2012)

What was measured:
[1] = tested on: vitamin D binding protein from goat serum; assay: RIA for determining competition with 3H-25-OH-vitamin D3 and displacement efficiency; set-up: unit not given here; conditions: tracer 3H-25-OH-vitamin D3
Description: Displacement efficiencies on vitamin D binding protein from goat serum and competition with ^3H-250H-vitamin D3 were measured for three vitamin D derivates using a RIA. The tested derivatives were 25-OH-vitamin D, biotinylated 25-OH-vitamin D3 of example 1 and 25-OH-D3 dimer of example 10.
The dimer having a short spacer has a lower displacement efficiecy than the corresponding biotinylated compound with the longer spacer group. […] For comparision, compound C in WO 97/24127 (Holick et al.) could only displace the tritiated compound from human vitamin D binding protein when it was present in eleven-fold excess. […] A longer spacer group in the vitamin D dimer leads to a higher affinity to DBP. An eleven fold lower affinity on the other hand is typical for vitamin D derivatives lacking the 25 hydroxy group which is essential for high affinity to vitamin D binding protein DBP.

[2] = tested on: vitamin D-binding protein; assay: Competitive protein binding analysis (CBPA) with 3H-25-OH-vitamin D as tracer, cross reactions; set-up: species or system goat
Description: In each case 100 μl vitamin D binding protein, isolated from goat serum (1:15000 in assay buffer with 3% (w/v) PEG 6000) together with 10 μl standard, control or sample (10 μl result from the sample preparation) was placed in the wells. The microtitration plate was incubated for 24 hours at 4EC in the dark and subject to shaking. Then, the solution was removed from the wells and the wells washed five times in each case with 200 μl washing buffer.
Insofar as no other indication is given, all reagents, buffers and materials were the same as in above-mentioned Example 3. There served as competitive binding partner (tracer) tritium-labelled 25-OH-vitamin D3. Differing from Example 3, the measurement samples were purified by means of extraction (into individual values). For this purpose, in each case 50 μl sample [non-specific assay buffer NSB, standard, control, patients sample (plasma, serum or urine)] was introduced into a 1.5 ml disposable reaction container, 200 μl acetonitrile added, mixed, the container walls centrifuged free, and the mixture incubated for 20 to 30 minutes at 4EC. The mixture was centrifuged at 1700×g for 10 minutes. The determinations were effected with the results using duplicate values.
For this purpose 25 μl clear result was transferred to a glass test tube (or into a special-RIA-container from Sarstedt, Darmstadt) and 10 μl tracer (3H-25-OH-D), 300 μl assay buffer and 100 μl vitamin D-binding protein (not in NSB) added. The test tube contents were mixed, incubated for one hour at 4EC and, to remove non-bound radioactive tracer, 100 μl activated charcoal suspension (activated charcoal containing phosphate buffer with 0.1% NaN3) was added. The test tube content was mixed, incubated for 3 to 5 minutes at 4EC, and the active charcoal pelletized by means of centrifuging for 10 minutes at 1700×g. Then, in each case 400 μl of the result was transferred to a counter container (7 ml) and, after the addition of 2 ml scintillator liquid such as Aquasafe™ 300 or HiSafe™ III, the radioactivity present in the result was counted (2 minutes in a beta-counter). […]

[3] = Stability of the 25-OH-D3-biotin compound in protonic solvent (NMR, HPLC); format: physicochemical; conditions: protonic solvent pH 4-5; for HPLC analysis, compound intact: 200 days
Description: In each case 20 mg purified 25-OH-D3-biotin compound (25-OH-vitamin D3-3β-3′[6-N-(biotinyl)-hexamido]amidopropylether) from Example 1 was placed in an NMR test tube to which 1 ml solvent was added. The solvent was a mixture of deuterium chloroform:deuterium acetonitrile: D2O in the ratio 3:2:1 with a pH-value between 4 and 5. The samples were stored for 200 days under the conditions set out below and the NMR spectra were investigated at regular intervals. • Sample 1: light excluded at −20EC; • Sample 2 light excluded at +4−6EC; • Sample 3: light excluded at room temperature; • Sample 4: subject to strong light (on a window ledge) at room temperature.
An HPLC analysis confirmed that samples 1 and 2 were intact even after 200 days in protonic solvent.

[4] = 250 nmol/l added to serum treated with activated charcoal

SMILES | B/Bo ([1]; Conc. 0.1 ng/ml) | B/Bo ([1]; Conc. 1 ng/ml) | B/Bo ([1]; Conc. 10 ng/ml) | B/Bo ([1]; Conc. 100 ng/ml) | B/Bo ([1]; Conc. 1000 ng/ml) | cross-reaction [2, 4] | further results
C=C1CC[C@H](O)C/C1=C/C=C1\CCC[C@]2(C)[C@@H]([C@H](C)CCCC(C)(C)O)CC[C@@H]12 [25-OH-D3, 25-OH-vitamin D3, reference compound] | 100 | 92 | 33 | 10 | 7 | – | –
C=C1CC[C@H](O)C/C1=C/C=C1\CCC[C@]2(C)[C@@H]([C@H](C)/C=C/[C@H](C)C(C)(C)O)CC[C@@H]12 [25-OH-vitamin D2] | – | – | – | – | – | – | cross-reaction ([2]; 125 nmol/l added to serum treated with activated charcoal): 60%
C=C1CCC(O)C/C1=C\C=C1\CCCC2(C)C1CCC2C(C)CCC(O)C(C)(C)O (centres unmarked) [24,25-(OH)2-vitamin D3] | – | – | – | – | – | 100% | –
C=C1CC[C@H](OCCCNC(=O)CCCCCNC(=O)CCCCC2SCC3NC(=O)NC32)C/C1=C/C=C1\CCC[C@@]2(C)C1CC[C@@H]2C(C)CCCC(C)(C)O (stereo partly drawn) [Biotin-25OH-D3, 25-Hydroxy vitamin D3-3β-3′[6-N-(biotinyl)hexamido]-amidopropylether] | 100 | 99 | 63 | 15 | 8 | – | HPLC analysis, compound intact ([3]; Sample 1: light excluded at -20EC): intact; HPLC analysis, compound intact ([3]; Sample 2: light excluded at +4-6EC): intact; HPLC analysis, compound still intact ([3]; Sample 3: light excluded at room temperature, after 100 days): more than 78%; degradation ([3]; Sample 4: strong light (window ledge) at room temperature): degraded after two months
C=C1/C(=C\C=C2/CCC[C@]3(C)[C@@H]([C@H](C)CCCC(C)(C)O)CC[C@@H]23)C[C@@H](O)C[C@@H]1O [1,25-(OH)2-vitamin D3] | – | – | – | – | – | no cross-reactivity | –
